Test results: patent US11959083B2, “Immunosuppression-reverting oligonucleotides inhibiting the expression of CD39” (Secarna Pharmaceuticals GmbH & Co. KG, priority 2016, dated 2024)
l = locked nucleic acid (LNA); d = 2'-deoxy (DNA)

Legend:
[1] = tested on: hCD39 mRNA; assay: hCD39 mRNA knockdown efficacy screen in HDLM-2 cells (single dose, gymnotic delivery, QuantiGene Singleplex); format: cell-based, human; design: key to Relative hCD39 mRNA expression (compared to non-treated cells): *: values are below detection limit; conditions: 10 μM, 3 days; for Mean hCD39 mRNA expression normalized to HPRT1 relative to untreated control = 1: first screening round; for Relative hCD39 mRNA expression (compared to non-treated cells): second screening round, normalized to HPRT1
Procedure: (§1) FIGS. 2A to 2D depict hCD39 mRNA knockdown efficacy of hCD39 antisense oligonucleotides in human cancer cell lines HDLM-2 (human Hodgkin Lymphoma) in a first and second screening round (FIGS. 2A-1 and 2A-2) and 2B-1 and 2B-2 and A-172 (human glioblastoma) in a first and second screening round (FIGS. 2C-1 and 2C-2) and 2D-1 and 2D-2. HDLM-2 and A-172 cells were treated for 3 days with 10 μM of the respective antisense oligonucleotide. As negative control, cells were treated with neg1, an antisense oligonucleotide having the sequence CGTTTAGGCTATGTACTT (SEQ ID NO:99) (described in WO2014154843 A1). Residual hCD39 mRNA expression relative to untreated cells is depicted. Expression values were normalized to expression of the housekeeping gene HPRT1. Depicted is the mean of triplicate wells+/−SD.
(§2) FIGS. 6A-6B depicts a third screening round where further antisense oligonucleotides were designed. These antisense oligonucleotides were based on efficient antisense oligonucleotides from the first and second screening round. Therefore, hCD39 antisense oligonucleotides were tested in human cancer cell lines HDLM-2 (human Hodgkin's lymphoma) (FIG. 6A) and A-172 (human glioblastoma) (FIG. 6B). HDLM-2 and A-172 cells were treated for 3 days with 10 μM of the respective antisense oligonucleotide. […] Residual hCD39 mRNA expression relative to untreated cells (set as 1) is depicted.
(§3) In order to analyze the efficacy of hCD39 antisense oligonucleotides of the present invention with regard to the knockdown of hCD39 mRNA expression in cancer cell lines, HDLM-2 (human Hodgkin Lymphoma, DSMZ) and A-172 (human glioblastoma, ATCC) cells were treated with a single dose (concentration: 10 μM without addition of any transfection reagent; this process is called gymnotic delivery) of the respective antisense oligonucleotide as shown in FIG. 2A to 2D. hCD39 and HPRT1 mRNA expression was analyzed three days later using the QuantiGene Singleplex assay (Affymetrix) and hCD39 expression values were normalized to HPRT1 values. […] Values of the mean normalized mRNA expression of hCD39 compared to non-treated cells are listed for A-172 (Table 4 for first screening round and Table 5 for second screening round) and HDLM-2 cells (Table 6 for first screening round and Table 7 for second screening round) in the following:
(§4) For a third screening round, new antisense oligonucleotides were designed. These antisense oligonucleotides were based on efficient antisense oligonucleotides from the first screening round with modifications in length, exact position on mRNA and chemical modification pattern. Therefore, hCD39 antisense oligonucleotides were tested in human cancer cell lines (FIG. 6A, Table 10) HDLM-2 (human Hodgkin's lymphoma) and (FIG. 6B, Table 11) A-172 (human glioblastoma). HDLM-2 and A-172 cells were treated for 3 days with 10 μM of the respective antisense oligonucleotide. […] Residual hCD39 mRNA expression relative to untreated cells (set as 1) is depicted.

[2] = tested on: hCD39 mRNA; assay: hCD39 mRNA knockdown efficacy screen in A-172 cells (single dose, gymnotic delivery, QuantiGene Singleplex); format: cell-based, human; conditions: 10 μM, 3 days; for Mean hCD39 mRNA expression (relative to untreated cells set as 1): first screening round; for Mean hCD39 mRNA expression (relative to untreated cells set as 1) / Relative hCD39 mRNA expression (compared to non-treated cells): normalized to HPRT1; for Relative hCD39 mRNA expression (compared to non-treated cells): second screening round
Procedure: as §1, §2, §3, §4

Substance | Mean hCD39 mRNA expression normalized to HPRT1 relative to untreated control = 1 [1] | Relative hCD39 mRNA expression (compared to non-treated cells) [1] | Mean hCD39 mRNA expression (relative to untreated cells set as 1) [2] | Relative hCD39 mRNA expression (compared to non-treated cells) [2] | Residual hCD39 mRNA expression relative to untreated cells (set as 1) ([1]; third screening round) | Residual hCD39 mRNA expression relative to untreated cells (set as 1) ([2]; third screening round)
+T*+T*+G*C*A*G*A*G*C*A*T*T*+A*+T*+C (antisense TTGCAGAGCATTATC; sugars from the 5' end l3 d9 l3, all phosphorothioate, methylation of C not given here) [A04007H] | 0.23 | 0.23 | 0.53 | 0.53 | – | –
+C*+T*+A*T*G*C*T*G*A*A*C*C*+A*+C*+C (antisense CTATGCTGAACCACC; sugars from the 5' end l3 d9 l3, all phosphorothioate, methylation of C not given here) [A04005H] | 0.21 | 0.21 | 0.11 | 0.11 | – | –
+A*+A*+A*G*T*C*C*A*G*C*C*G*G*C*G*+T*+C (antisense AAAGTCCAGCCGGCGTC; sugars from the 5' end l3 d12 l2, all phosphorothioate, methylation of C not given here) [A04050H] | 0.11 | 0.90 | 0.55 | 0.28 | – | –
+G*+A*C*T*A*T*G*C*T*G*A*A*C*+C*+A*+C (antisense GACTATGCTGAACCAC; sugars from the 5' end l2 d11 l3, all phosphorothioate, methylation of C not given here) [A04023H] | 0.06 | 0.06 | 0.09 | 0.10 | – | –
+A*+C*+T*C*C*A*C*A*C*T*A*A*T*+G*+C*+T (antisense ACTCCACACTAATGCT; sugars from the 5' end l3 d10 l3, all phosphorothioate, methylation of C not given here) [A04037H] | 0.12 | 0.10 | 0.17 | 0.09 | – | –
+G*+A*+G*A*G*A*A*T*G*T*A*G*G*T*+A*C*+C (antisense GAGAGAATGTAGGTACC; sugars from the 5' end l3 d11 l1 d1 l1, all phosphorothioate, methylation of C not given here) [A04048H] | 0.05 | 0.36 | 0.09 | 0.05 | – | –
+G*+C*+C*C*C*A*A*A*A*T*C*C*C*C*+C*+T*+G (antisense GCCCCAAAATCCCCCTG; sugars from the 5' end l3 d11 l3, all phosphorothioate, methylation of C not given here) [A04047H] | – | * | – | 0.43 | – | –
+C*+T*+G*A*C*T*G*A*A*T*T*T*G*+C*+C*+C (antisense CTGACTGAATTTGCCC; sugars from the 5' end l3 d10 l3, all phosphorothioate, methylation of C not given here) [A04021H] | 0.11 | 0.11 | 0.16 | 0.16 | – | –
+C*+T*+C*C*A*G*C*G*T*A*A*G*+A*+T (antisense CTCCAGCGTAAGAT; sugars from the 5' end l3 d9 l2, all phosphorothioate, methylation of C not given here) [A04002H] | – | 0.53 | – | 0.96 | – | –
+T*+T*+G*A*A*C*A*C*T*G*C*+G*+A*+T (antisense TTGAACACTGCGAT; sugars from the 5' end l3 d8 l3, all phosphorothioate, methylation of C not given here) [A04003H] | 0.20 | 0.20 | 0.18 | 0.18 | – | –
+G*+G*+C*G*A*A*A*T*T*G*C*+A*+G*+A (antisense GGCGAAATTGCAGA; sugars from the 5' end l3 d8 l3, all phosphorothioate, methylation of C not given here) [A04001H] | 0.25 | 0.25 | 0.58 | 0.58 | – | –
+G*+G*+A*C*A*A*T*G*G*T*T*G*C*+T*C*+A (antisense GGACAATGGTTGCTCA; sugars from the 5' end l3 d10 l1 d1 l1, all phosphorothioate, methylation of C not given here) [A04030H] | 0.07 | 0.38 | 0.19 | 0.10 | – | –
+T*G*+T*A*G*A*G*G*C*T*C*C*C*+C*+C (antisense TGTAGAGGCTCCCCC; sugars from the 5' end l1 d1 l1 d10 l2, all phosphorothioate, methylation of C not given here) [A04006H] | 0.20 | 0.20 | 0.19 | 0.20 | – | –
+A*+A*+G*G*T*C*A*C*T*T*A*C*G*T*+T*+C*+A (antisense AAGGTCACTTACGTTCA; sugars from the 5' end l3 d11 l3, all phosphorothioate, methylation of C not given here) [A04046H] | 0.04 | 0.37 | 0.14 | 0.08 | – | –
+C*+C*+C*T*C*T*C*A*C*T*A*A*A*+T*+T*+A (antisense CCCTCTCACTAAATTA; sugars from the 5' end l3 d10 l3, all phosphorothioate, methylation of C not given here) [A04036H] | 0.26 | 0.01 | 0.55 | 0.28 | – | –
+A*+A*+T*C*C*C*C*C*T*G*G*A*+G*+T*+G (antisense AATCCCCCTGGAGTG; sugars from the 5' end l3 d9 l3, all phosphorothioate, methylation of C not given here) [A04011H] | 0.29 | 0.30 | – | 0.69 | – | –
+T*+G*+A*T*A*G*C*C*T*T*G*C*+A*+G*+A (antisense TGATAGCCTTGCAGA; sugars from the 5' end l3 d9 l3, all phosphorothioate, methylation of C not given here) [A04014H] | 0.17 | 0.17 | 0.27 | 0.27 | – | –
+T*+A*+G*T*A*A*G*C*C*C*T*G*+A*+T*+G (antisense TAGTAAGCCCTGATG; sugars from the 5' end l3 d9 l3, all phosphorothioate, methylation of C not given here) [A04055H] | – | – | – | – | 0.03 | 0.52
